Legend:
IGF-I = test: Simulated sustained release study (bolus vs divided oral solution): serum IGF-I; format: in vivo, human; conditions: simulated sustained release dosing compared to bolus
Description: This dosing regimen simulates active compound delivery by a sustained release dosage form. […] Serum concentrations of growth hormone were monitored just prior to administration of the first dose and every 20 minutes thereafter for 24 hours. Serum […] growth factor-I (IGF-I) concentrations were measured at 0, 12, and 24 hours post-first dose.
The order of treatment was defined by a randomization schedule. Following initial administration, subjects were readmitted to the clinical research facility approximately 14 days later. During the second evaluation, the subject received the treatment not used during the previous session.
IGF-I serum concentrations were determined following administration of the bolus or divided doses. […]
IGF-I quantitation of the human serum samples was conducted using the “DSL-5600A Active™ IGF-I Coated-Tube IRMA (immunoradiometric assay) by Extraction” Kit (Diagnostic Systems Laboratories Inc., Webster, Tex.). […] Lyophilized calibration and validation samples were prepared by the addition of 1 mL of water to the ready-to-use samples. […] This neutralized human serum extract was ready for use in the actual IRMA after having vortexed it briefly. […] The remaining [^125I]radioactivity of all tubes was determined by counting for five minutes using a Canberra-Packard Cobra II™ 5002 ã-counter (Canberra-Packard, Schwadorf, Austria).

[1] = One compartment pharmacokinetic model fitted to observed human plasma concentrations
Excerpt: A one compartment pharmacokinetic model was constructed using the following equations (I Think, Stella, HPS, Hanover, N.H.): […]
where ba is bioavailability (1.0), Vdist_liter is volume of distribution in units of liters (0.75), ka_hr1 is absorption rate constant in units of reciprocal hr (1.3), and thalf_hr is the plasma concentration vs. time elimination half-life in units of hr (2.5).
These parameters were then fixed to the values noted above for all subsequent simulations.

[2] = fitted one compartment model, humans

For `CN1N=C2CCN(C(=O)[C@@H](COCc3ccccc3)NC(=O)C(C)(C)N)C[C@@]2(Cc2ccccc2)C1=O.O=C(O)C(O)C(O)C(=O)O` [Compound A], the “IGF-I serum concentration change from baseline at 24 hours” value (IGF-I) was “increased”, the “absorption rate constant (ka_hr1)” value [1, 2] was 1.3 reciprocal hr and the “plasma concentration vs. time elimination half-life (thalf_hr)” value [1, 2] was 2.5 h. The “volume of distribution (Vdist_liter)” value [1, 2] was 0.75 L and the “bioavailability (ba)” value ([1]; fitted to observed plasma concentrations after oral 10, 3 and 0.3 mg doses to humans) was 1.0.

From patent publication US6641840B2, “Sustained release formulations for growth hormone secretagogues” (Pfizer Inc., priority 2000, dated 2003)
